pIC50: −log10 of the molar value. Converted amounts (≈) assume the structure as drawn.
Tests used:
[1] = test system: Burkholderia mallei CHN7; experiment: microbe, parasite or virus in culture; type: cell-based; conditions: Burkholderia mallei, CHN7, read-out: MIC B. mallei CHN7
[2] = test system: Staphylococcus aureus ATCC 12600; experiment: MIC, spiral gradient endpoint assay, S. aureus ATCC 12600; type: cell-based; conditions: ATCC12600; Staphylococcus aureus ATCC 12600
[3] = test system: Burkholderia pseudomallei Human/Blood/OH/US/1994; experiment: microbe, parasite or virus in culture; type: cell-based; conditions: Burkholderia pseudomallei, read-out: MIC B. pseudomallei Human/Blood/OH
[4] = test system: Francisella tularensis SCHU4; experiment: microbe, parasite or virus in culture; type: cell-based; conditions: Francisella tularensis, SCHU4, read-out: MIC F. tularensis SCHU4
[5] = test system: Mycobacterium tuberculosis H37Rv; experiment: MIC, microplate Alamar Blue assay, M. tuberculosis; type: cell-based
[6] = test system: Escherichia coli D21f2tolC; experiment: MIC, spiral gradient endpoint assay, E. coli D21f2tolC; type: cell-based; conditions: Escherichia coli, D21F2TOLC, read-out: MIC E. coli D21f2toIC
[7] = test system: Yersinia pestis C092; experiment: microbe, parasite or virus in culture; type: cell-based; conditions: Yersinia pestis, C092, read-out: MIC Y. pestis C092
[8] = test system: Bacillus anthracis Vollum 1b; experiment: microbe, parasite or virus in culture; type: cell-based; conditions: Bacillus anthracis, VOLLUM1B, read-out: MIC B. anthracis Vollum-1b
[9] = test system: Brucella melitensis 16M; experiment: microbe, parasite or virus in culture; type: cell-based; conditions: Brucella melitensis, 16M, read-out: MIC B. melitensis 16M
[10] = biological target: E. coli RNA polymerase σ^70 holoenzyme (Escherichia coli, UniProt P0A8T7+P0A8V2); experiment: Fluorescence-detected RNA polymerase assay, E. coli RNA polymerase; type: biochemical; conditions: read-out: IC50 E. coli RNAP
E. coli RNA polymerase σ^70 holoenzyme, sequence (P0A8T7 whole entry): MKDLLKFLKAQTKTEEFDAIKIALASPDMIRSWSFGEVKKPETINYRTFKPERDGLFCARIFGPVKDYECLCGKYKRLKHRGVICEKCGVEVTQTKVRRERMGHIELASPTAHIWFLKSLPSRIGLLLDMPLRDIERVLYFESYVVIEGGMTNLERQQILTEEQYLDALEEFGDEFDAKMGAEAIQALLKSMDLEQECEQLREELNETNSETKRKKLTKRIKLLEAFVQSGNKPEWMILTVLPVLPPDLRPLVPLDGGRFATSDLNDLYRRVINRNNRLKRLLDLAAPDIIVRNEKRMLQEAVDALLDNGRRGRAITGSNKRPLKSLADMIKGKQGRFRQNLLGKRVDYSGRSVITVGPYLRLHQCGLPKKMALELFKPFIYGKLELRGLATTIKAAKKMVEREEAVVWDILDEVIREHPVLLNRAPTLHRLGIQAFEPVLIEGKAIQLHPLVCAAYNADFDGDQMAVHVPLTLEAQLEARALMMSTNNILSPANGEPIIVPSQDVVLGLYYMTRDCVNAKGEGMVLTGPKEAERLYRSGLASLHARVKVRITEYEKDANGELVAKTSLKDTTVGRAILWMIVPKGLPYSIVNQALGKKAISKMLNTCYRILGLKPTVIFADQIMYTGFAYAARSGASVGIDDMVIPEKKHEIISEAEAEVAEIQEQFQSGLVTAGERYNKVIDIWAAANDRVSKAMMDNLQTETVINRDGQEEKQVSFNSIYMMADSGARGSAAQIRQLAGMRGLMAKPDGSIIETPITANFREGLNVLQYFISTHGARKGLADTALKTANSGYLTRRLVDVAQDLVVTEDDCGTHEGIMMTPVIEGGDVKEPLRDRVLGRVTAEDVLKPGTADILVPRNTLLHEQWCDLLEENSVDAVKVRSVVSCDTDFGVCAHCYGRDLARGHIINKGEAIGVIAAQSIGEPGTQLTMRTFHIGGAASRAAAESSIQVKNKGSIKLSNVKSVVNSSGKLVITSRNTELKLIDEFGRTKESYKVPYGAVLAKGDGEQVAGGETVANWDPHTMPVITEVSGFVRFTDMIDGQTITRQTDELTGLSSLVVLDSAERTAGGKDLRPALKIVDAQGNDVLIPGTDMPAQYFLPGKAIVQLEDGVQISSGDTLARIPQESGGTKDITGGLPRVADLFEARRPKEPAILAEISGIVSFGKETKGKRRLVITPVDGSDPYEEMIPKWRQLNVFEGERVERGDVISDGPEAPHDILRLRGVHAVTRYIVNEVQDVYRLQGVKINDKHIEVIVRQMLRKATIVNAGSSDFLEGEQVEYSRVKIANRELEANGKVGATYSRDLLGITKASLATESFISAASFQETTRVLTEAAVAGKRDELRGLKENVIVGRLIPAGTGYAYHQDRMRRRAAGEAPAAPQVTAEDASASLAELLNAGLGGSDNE
E. coli RNA polymerase σ^70 holoenzyme, sequence (P0A800 whole entry, further chain): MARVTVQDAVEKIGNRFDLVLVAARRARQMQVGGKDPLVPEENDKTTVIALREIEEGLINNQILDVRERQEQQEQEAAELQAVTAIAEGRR
E. coli RNA polymerase σ^70 holoenzyme, sequence (P0A8V2 whole entry): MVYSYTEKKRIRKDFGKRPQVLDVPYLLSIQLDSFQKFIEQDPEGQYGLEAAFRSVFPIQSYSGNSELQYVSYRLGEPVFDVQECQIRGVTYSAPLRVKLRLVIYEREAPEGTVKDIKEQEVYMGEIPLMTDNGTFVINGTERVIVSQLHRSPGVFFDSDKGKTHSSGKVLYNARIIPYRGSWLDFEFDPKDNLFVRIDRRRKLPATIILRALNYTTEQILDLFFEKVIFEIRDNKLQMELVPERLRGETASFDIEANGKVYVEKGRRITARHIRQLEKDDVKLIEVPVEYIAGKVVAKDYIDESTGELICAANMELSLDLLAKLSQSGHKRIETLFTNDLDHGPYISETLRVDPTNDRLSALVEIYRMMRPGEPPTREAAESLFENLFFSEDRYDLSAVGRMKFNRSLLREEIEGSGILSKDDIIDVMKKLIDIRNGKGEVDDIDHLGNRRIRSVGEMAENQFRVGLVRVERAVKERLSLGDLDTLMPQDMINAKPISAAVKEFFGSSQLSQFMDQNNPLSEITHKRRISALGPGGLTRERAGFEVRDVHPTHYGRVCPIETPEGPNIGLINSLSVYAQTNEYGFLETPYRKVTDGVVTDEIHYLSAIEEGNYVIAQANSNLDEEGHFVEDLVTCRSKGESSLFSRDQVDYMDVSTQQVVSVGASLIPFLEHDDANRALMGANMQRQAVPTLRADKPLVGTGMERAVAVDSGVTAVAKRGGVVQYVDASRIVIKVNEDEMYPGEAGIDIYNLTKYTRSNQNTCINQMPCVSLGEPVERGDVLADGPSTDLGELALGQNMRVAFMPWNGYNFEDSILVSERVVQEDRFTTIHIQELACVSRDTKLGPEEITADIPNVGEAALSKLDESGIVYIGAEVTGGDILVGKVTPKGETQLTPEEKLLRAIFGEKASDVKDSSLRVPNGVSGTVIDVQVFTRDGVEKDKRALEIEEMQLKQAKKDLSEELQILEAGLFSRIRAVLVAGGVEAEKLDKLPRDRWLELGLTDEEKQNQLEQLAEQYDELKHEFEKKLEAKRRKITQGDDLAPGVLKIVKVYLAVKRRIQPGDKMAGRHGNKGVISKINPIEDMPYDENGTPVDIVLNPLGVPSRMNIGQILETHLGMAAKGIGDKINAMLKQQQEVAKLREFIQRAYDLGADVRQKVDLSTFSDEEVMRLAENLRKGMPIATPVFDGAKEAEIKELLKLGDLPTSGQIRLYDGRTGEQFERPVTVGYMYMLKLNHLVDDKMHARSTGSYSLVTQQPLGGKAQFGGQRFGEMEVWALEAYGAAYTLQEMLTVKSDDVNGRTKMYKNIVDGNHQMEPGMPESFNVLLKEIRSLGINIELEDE
E. coli RNA polymerase σ^70 holoenzyme, sequence (P00579 whole entry, further chain): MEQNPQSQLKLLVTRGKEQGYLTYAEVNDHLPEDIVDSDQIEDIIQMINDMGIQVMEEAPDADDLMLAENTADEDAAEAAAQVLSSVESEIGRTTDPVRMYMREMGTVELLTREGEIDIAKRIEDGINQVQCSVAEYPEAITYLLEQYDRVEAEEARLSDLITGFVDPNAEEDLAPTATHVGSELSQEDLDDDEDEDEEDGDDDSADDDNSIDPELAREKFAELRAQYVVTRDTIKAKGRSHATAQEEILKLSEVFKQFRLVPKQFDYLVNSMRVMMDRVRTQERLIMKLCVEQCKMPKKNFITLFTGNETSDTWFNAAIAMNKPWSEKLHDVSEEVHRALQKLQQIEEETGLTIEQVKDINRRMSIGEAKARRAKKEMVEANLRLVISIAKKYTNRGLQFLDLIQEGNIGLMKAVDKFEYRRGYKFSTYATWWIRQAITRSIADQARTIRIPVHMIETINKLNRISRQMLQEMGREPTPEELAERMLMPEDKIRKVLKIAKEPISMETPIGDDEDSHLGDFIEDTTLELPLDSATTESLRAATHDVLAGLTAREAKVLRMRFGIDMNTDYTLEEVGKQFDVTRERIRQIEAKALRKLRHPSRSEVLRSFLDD
E. coli RNA polymerase σ^70 holoenzyme, sequence (P0A7Z4 whole entry, further chain): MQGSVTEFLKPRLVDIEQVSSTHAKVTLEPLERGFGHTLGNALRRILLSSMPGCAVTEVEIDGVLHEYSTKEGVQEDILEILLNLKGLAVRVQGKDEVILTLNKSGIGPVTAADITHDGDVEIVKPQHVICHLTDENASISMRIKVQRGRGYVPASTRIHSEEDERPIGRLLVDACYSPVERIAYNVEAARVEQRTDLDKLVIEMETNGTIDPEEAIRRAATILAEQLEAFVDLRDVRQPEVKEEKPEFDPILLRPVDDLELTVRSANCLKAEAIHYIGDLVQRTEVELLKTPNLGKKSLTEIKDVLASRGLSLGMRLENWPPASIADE

[11] = test system: Acinetobacter baumannii ATCC 19606; experiment: MIC, spiral gradient endpoint assay, A. baumannii; type: cell-based; conditions: ATCC19606; Acinetobacter baumannii ATCC 19606

| SMILES | MIC [1] | MIC [2] | MIC [3] | MIC [4] | MIC [5] | MIC [6] | MIC [7] | MIC [8] | MIC [9] | pIC50 [10] | MIC [11] |
| --- | --- | --- | --- | --- | --- | --- | --- | --- | --- | --- | --- |
| COC(=O)N/C=C/CCC(C)c1cc(O)c(C(=O)C(C)=Cc2sc(CC(C)C)cc2Br)c(=O)o1 (mixture of isomers) [APY124, methyl ((1E)-5-(3-(3-(3-bromo-5-isobutylthiophen-2-yl)-2-methylacryloyl)-4-hydroxy-2-oxo-2H-pyran-6-yl)hex-1-en-1-yl)carbamate] | 10 µg/mL | 0.9 µg/mL | 30 µg/mL | 6 µg/mL | 50 µg/mL | 0.3 µg/mL | 6 µg/mL | 0.2 µg/mL | 10 µg/mL | 8.40 | 6 µg/mL |
| CCCOc1ccc(C=C(C)C(=O)c2c(O)cc(C(C)CC/C=C/NC(=O)OC)oc2=O)cc1 (mixture of isomers) [APY40, methyl (E)-5-(4-hydroxy-3-((E/Z)-2-methyl-3-(4-propoxyphenyl)acryloyl)-2-oxo-2H-pyran-6-yl)hex-1-enylcarbamate] | > 50 µg/mL | 1 µg/mL | > 50 µg/mL | > 50 µg/mL | 6 µg/mL | 0.4 µg/mL | > 50 µg/mL | 10 µg/mL | 3 µg/mL | 8.00 | 9 µg/mL |
| COC(=O)N/C=C/CCC(C)c1cc(O)c(C(=O)C(C)=Cc2ccc(OCC(F)F)cc2C)c(=O)o1 (mixture of isomers) [APY131, methyl ((1E)-5-(3-(3-(4-(2,2-difluoroethoxy)-2-methylphenyl)-2-methylacryloyl)-4-hydroxy-2-oxo-2H-pyran-6-yl)hex-1-en-1-yl)carbamate] | > 50 µg/mL | 8 µg/mL | > 50 µg/mL | > 50 µg/mL | 30 µg/mL | 0.7 µg/mL | > 50 µg/mL | 30 µg/mL | > 50 µg/mL | 6.70 | > 40 µg/mL |
| CCCCOc1ccc(C=C(C)C(=O)c2c(O)cc(C(C)CC/C=C/NC(=O)OC)oc2=O)c(C)c1 (mixture of isomers) [APY129, methyl ((1E)-5-(3-(3-(4-butoxy-2-methylphenyl)-2-methylacryloyl)-4-hydroxy-2-oxo-2H-pyran-6-yl)hex-1-en-1-yl)carbamate] | 50 µg/mL | 2 µg/mL | > 50 µg/mL | > 50 µg/mL | 30 µg/mL | 0.3 µg/mL | 30 µg/mL | 3 µg/mL | 10 µg/mL | 7.30 | 40 µg/mL |
| CCC(C)Oc1ccc2c(c1)cc(C=C(C)C(=O)c1c(O)cc(C(C)CC/C=C/NC(=O)OC)oc1=O)n2C (stereo not shown) [APY122, methyl ((1E)-5-(3-(3-(5-(sec-butoxy)-1-methyl-1H-indol-2-yl)-2-methylacryloyl)-4-hydroxy-2-oxo-2H-pyran-6-yl)hex-1-en-1-yl)carbamate] | > 50 µg/mL | > 40 µg/mL | > 50 µg/mL | 50 µg/mL (≈ 93.2 µM) | > 50 µg/mL | 0.5 µg/mL (≈ 0.932 µM) | > 50 µg/mL | 50 µg/mL (≈ 93.2 µM) | > 50 µg/mL | 7.00 | > 40 µg/mL |
| COC(=O)N/C=C/CCC(C)c1cc(O)c(C(=O)C(C)=Cc2ccc(Oc3ccc(C(F)(F)F)cc3)s2)c(=O)o1 (mixture of isomers) [APY119, methyl ((1E)-5-(4-hydroxy-3-(2-methyl-3-(5-(4-(trifluoromethyl)phenoxy)thiophen-2-yl)acryloyl)-2-oxo-2H-pyran-6-yl)hex-1-en-1-yl)carbamate] | 3 µg/mL | 2 µg/mL | 6 µg/mL | 50 µg/mL | > 50 µg/mL | 0.1 µg/mL | 3 µg/mL | 0.8 µg/mL | 3 µg/mL | 8.22 | > 40 µg/mL |
| CCCCc1ncc(C=C(C)C(=O)c2c(O)cc(C(C)CC/C=C/NC(=O)OC)oc2=O)s1 (mixture of isomers) [APY136, methyl ((1E)-5-(3-(3-(2-butylthiazol-5-yl)-2-methylacryloyl)-4-hydroxy-2-oxo-2H-pyran-6-yl)hex-1-en-1-yl)carbamate] | 30 µg/mL | 1 µg/mL | 50 µg/mL | > 50 µg/mL | 6 µg/mL | 0.2 µg/mL | 10 µg/mL | 10 µg/mL | 6 µg/mL | 7.70 | > 40 µg/mL |
| CCCCOc1cccc(C=C(C)C(=O)c2c(O)cc(C(C)CC/C=C/NC(=O)OC)oc2=O)c1 (mixture of isomers) [APY42, methyl (E)-5-(3-((E/Z)-3-(3-butoxyphenyl)-2-methylacryloyl)-4-hydroxy-2-oxo-2H-pyran-6-yl)hex-1-enylcarbamate] | 50 µg/mL | > 40 µg/mL | 50 µg/mL | 50 µg/mL | 30 µg/mL | 0.4 µg/mL | > 50 µg/mL | 10 µg/mL | 6 µg/mL | 7.52 | > 40 µg/mL |
| CCCCCc1ccc(C=C(C)C(=O)c2c(O)cc(C(C)CC/C=C/NC(=O)OC)oc2=O)s1 (mixture of isomers) [APY59, methyl (E)-5-(4-hydroxy-5-((E/Z)-2-methyl-3-(5-pentylthiophen-2-yl)acryloyl)-6-oxo-6H-pyran-2-yl)hex-1-enylcarbamate] | 6 µg/mL | 0.3 µg/mL | 10 µg/mL | 10 µg/mL | 30 µg/mL | 0.2 µg/mL |  | 2 µg/mL | 6 µg/mL | 8.00 | 7 µg/mL |
| CCCCc1ccc(C=C(C)C(=O)c2c(O)cc(C(C)CCCCNC(=O)OC)oc2=O)s1 (mixture of isomers) [APY67, methyl 5-(5-((E/Z)-3-(5-butylthiophen-2-yl)-2-methylacryloyl)-4-hydroxy-6-oxo-6H-pyran-2-yl)hexylcarbamate] | > 50 µg/mL | 5 µg/mL | > 50 µg/mL | 50 µg/mL | 50 µg/mL | 0.5 µg/mL |  | 30 µg/mL | 10 µg/mL | 6.00 | > 40 µg/mL |
| COC(=O)N/C=C/CCC(C)c1cc(O)c(C(=O)C(C)=Cc2ccc(CCCCCC(F)(F)F)s2)c(=O)o1 (mixture of isomers) [APY82, methyl ((1E)-5-(4-hydroxy-3-(2-methyl-3-(5-(6,6,6-trifluorohexyl)thiophen-2-yl)acryloyl)-2-oxo-2H-pyran-6-yl)hex-1-en-1-yl)carbamate] | 6 µg/mL | 10 µg/mL | 6 µg/mL | 10 µg/mL | > 50 µg/mL | 0.07 µg/mL |  | 3 µg/mL | 2 µg/mL | 8.30 | 20 µg/mL |
| COC(=O)N/C=C/CCC(C)c1cc(O)c(C(=O)C(C)=Cc2ccc(OCC(C)(C)C)cc2)c(=O)o1 (mixture of isomers) [APY55, methyl (E)-5-(4-hydroxy-3-((E/Z)-2-methyl-3-(4-(neopentyloxy)phenyl)acryloyl)-2-oxo-2H-pyran-6-yl)hex-1-enylcarbamate] | 50 µg/mL | 10 µg/mL | > 50 µg/mL | 30 µg/mL | 10 µg/mL | 0.7 µg/mL |  | 2 µg/mL | 30 µg/mL | 7.40 | > 40 µg/mL |
| COC(=O)N/C=C/CCC(C)c1cc(O)c(C(=O)C(C)=Cc2ccc(OCCC(C)(C)C)cc2)c(=O)o1 (mixture of isomers) [APY48, methyl (E)-5-(3-((E/Z)-3-(4-(3,3-dimethylbutoxy)phenyl)-2-methylacryloyl)-4-hydroxy-2-oxo-2H-pyran-6-yl)hex-1-enylcarbamate] | 50 µg/mL | 10 µg/mL | > 50 µg/mL | 10 µg/mL | 10 µg/mL |  | > 50 µg/mL | 6 µg/mL | 6 µg/mL | 6.05 |  |
| CCc1ccc(C=C(C)C(=O)c2c(O)cc(C(C)CC/C=C/NC(=O)OC)oc2=O)s1 (mixture of isomers) [APY64, methyl (E)-5-(5-((E/Z)-3-(5-ethylthiophen-2-yl)-2-methylacryloyl)-4-hydroxy-6-oxo-6H-pyran-2-yl)hex-1-enylcarbamate] | > 50 µg/mL | 9 µg/mL | > 50 µg/mL | 50 µg/mL | 30 µg/mL | 0.8 µg/mL |  | 50 µg/mL | 10 µg/mL | 6.70 | > 40 µg/mL |
| CCc1ccc(C=C(C)C(=O)c2c(O)cc(C(C)CC/C=C/NC(=O)OC)oc2=O)cc1 (mixture of isomers) [APY70, methyl (E)-5-(5-((E/Z)-3-(4-ethylphenyl)-2-methylacryloyl)-4-hydroxy-6-oxo-6H-pyran-2-yl)hex-1-enylcarbamate] | > 50 µg/mL | 20 µg/mL | > 50 µg/mL | > 50 µg/mL | 30 µg/mL | 1 µg/mL |  | 50 µg/mL | 30 µg/mL | < 5.22 | > 40 µg/mL |
